# Data as given in patent US20110039846A1, “IMINOPYRIDINE DERIVATIVES AND USE THEREOF” (TAKEDA PHARMACEUTICAL COMPANY LIMITED, priority 2008, published 2011).
# Structures can show the parent of a compound that is named as a salt.
# Target: T1, human α1D adrenaline receptor (Homo sapiens, UniProt P25100)
# T1 construct: expressed in transfected cells
# T1 sequence (P25100 1-572): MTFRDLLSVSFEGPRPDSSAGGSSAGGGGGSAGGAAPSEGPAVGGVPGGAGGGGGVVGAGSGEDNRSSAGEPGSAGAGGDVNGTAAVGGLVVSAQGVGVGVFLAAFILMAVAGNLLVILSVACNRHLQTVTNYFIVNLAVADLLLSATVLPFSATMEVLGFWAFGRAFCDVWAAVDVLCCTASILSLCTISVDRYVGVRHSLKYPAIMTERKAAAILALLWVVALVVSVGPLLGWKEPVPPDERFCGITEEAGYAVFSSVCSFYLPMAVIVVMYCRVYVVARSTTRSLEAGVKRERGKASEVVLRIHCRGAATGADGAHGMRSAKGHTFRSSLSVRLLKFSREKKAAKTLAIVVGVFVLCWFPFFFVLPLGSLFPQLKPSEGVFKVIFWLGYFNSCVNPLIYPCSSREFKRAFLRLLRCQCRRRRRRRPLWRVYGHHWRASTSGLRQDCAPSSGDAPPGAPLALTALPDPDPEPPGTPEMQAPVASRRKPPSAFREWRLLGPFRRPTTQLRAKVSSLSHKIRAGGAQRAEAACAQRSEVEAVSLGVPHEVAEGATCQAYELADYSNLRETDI
# Experiment: Measurement of α1D adrenaline receptor binding inhibitory activity ([3H] prazosin binding to membrane fraction of CHO-K1 cells expressing the receptor)
# Conditions: α1D adrenaline receptor binding inhibitory rate at 1 μM compound; [3H] prazosin 2.5 nM; CHO-K1 membrane fraction 20 μg/well; room temperature 1 hr
# Procedure: Measurement of α1D Adrenaline Receptor Binding Inhibitory Activity
# Genetic manipulation methods described below are based on the methods described in Maniatis et al., Molecular Cloning, Cold Spring Harbor Laboratory, 1989, the protocol appended to a reagent and the like.
# α1D Adrenaline receptor gene was cloned from human liver cDNA by the PCR method. PCR reaction was performed by Gene Amp PCR System 9700 (Applied Biosystems) with 50 pmol each of the primer set 5′-[…]-3′ [SEQ ID NO: 1] and 5′-[…]-3′ [SEQ ID NO: 2] prepared in reference to the base sequence of the α1D adrenaline receptor gene reported by DEBRA A. et al. (J. Pharmacol. Exp. Ter., 272, 134-142 (1995)), 200 ng of human brain hippocampus cDNA library (Takara Shuzo Co., Ltd.) as a template and TaKaRa LA-Taq DNA Polymerase (Takara Shuzo Co., Ltd.) (reaction conditions: 45 cycles of 94° C. for 15 sec, 68° C. for 3.5 min).
# The PCR fragment obtained above was digested with restriction enzymes NheI (Takara Shuzo Co., Ltd.) and Kpn I (Takara Shuzo Co., Ltd.), and applied to agarose gel electrophoresis to recover DNA fragments. The DNA fragments were ligated with animal cell expression plasmid pcDNA3.1/Zeo (Invitrogen) digested with NheI and Kpn I, by DNA Ligation Kit Ver.2 (Takara Shuzo Co., Ltd.), and transformed the competent cells of Escherichia coli JM109 to obtain plasmid, pcDNA3.1/Zeo-Adreα1D.
# CHO-K1 cells passage cultured in HamF12 medium (Invitrogen) containing 10% fetal bovine serum (TRACE SCIENCETIFIC) in a 150 cm^2 culture flask (Corning Coaster) were detached with 0.5 g/L trypsin-0.2 g/L EDTA (Invitrogen), and the cells were washed with D-PBS(−) (Invitrogen) and centrifuged (1000 rpm, 5 min). Then, using Gene Pulser II (BioRad), DNA was introduced into the cells under the following conditions. 1×10^7 cells suspended in D-PBS(−) (700 μl) and 10 μg of pcDNA3.1/Zeo-Adreα1D were added in a 0.4 cm gap cuvette (BioRad), and electroporation was performed under voltage 0.25 kV, capacitance 960 μF. The cells were cultured in HamF12 medium containing 10% fetal bovine serum and 250 μg/mL Zeocin (Invitrogen) and the Zeocin resistance clones were selected.
# Plurality of Zeocin resistance clones were selected and cultured in a cell culture flask (150 cm^2) until semiconfluent, and the cellular membrane fraction was prepared as follows.
# The semiconfluent cells were detached with 0.02% EDTA containing D-PBS(−) and recovered by centrifugation. The cells were suspended in membrane preparation buffer (10 mM NaHCO3 pH 7.4, protease inhibitor cocktail (Roche)) and disrupted by 3 times of treatment in a polytron homogenizer (model PT-3100, KINEMATICA AG) at 20000 rpm for 20 seconds. After disruption, the cells were centrifuged at 2000 rpm for 10 min and the supernatant containing membrane fractions was obtained. The supernatant was centrifuged using an ultracentrifuge (model L8-70M, rotor 70 Ti, Beckman Instruments) at 30000 rpm for 1 hr to obtain a precipitate containing membrane fractions. The obtained membrane fraction of each clone was subjected to the binding experiment shown below.
# The membrane fraction (20 μg/well) and [^3H] prazosin (2.5 nM, PerkinElmer Lifescience), as a ligand, were diluted with a binding assay buffer (50 mM Tris-HCl, 10 mM MgCl2, 0.5% BSA, protease inhibitor cocktail pH 7.5), added to a 96 well microplate, and reacted at room temperature for 1 hr. For the measurement of non-specific binding, phentolamine (Sigma) was further added to 10 μM. Then, the reaction mixture was filtered and transferred to unifilter GF/C (PerkinElmer Lifescience) by using a cell harvester (PerkinElmer Lifescience). The filter was washed 3 times with ice-cooled 50 mM Tris buffer (pH 7.5). After drying the filter, MicroScinti 0 (PerkinElmer Lifescience) was added to the filter and the radioactivity was measured by TopCount (PerkinElmer Lifescience). […]
row,Structure (SMILES),inhibition at 1 µM [%]
1,"CCS(=O)(=O)c1ccc(F)cc1Cn1cc(Cl)cc(C(N)=O)c1=N [Example 24, 5-chloro-1-[2-(ethylsulfonyl)-5-fluorobenzyl]-2-imino-1,2-dihydropyridine-3-carboxamide hydrochloride]",98.4
2,"CS(=O)(=O)c1cc(Cn2cc(Cl)cc(C(N)=O)c2=N)ccc1Cl [Example 15, 5-chloro-1-[4-chloro-3-(methylsulfonyl)benzyl]-2-imino-1,2-dihydropyridine-3-carboxamide hydrochloride]",72.8
3,"N=c1c(C(N)=O)cc(Cl)cn1Cc1cc(Cl)ccc1N1CCCC1=O [Example 35, 5-chloro-1-[5-chloro-2-(2-oxopyrrolidin-1-yl)benzyl]-2-imino-1,2-dihydropyridine-3-carboxamide hydrochloride]",89
4,"CS(=O)(=O)c1cc(Cl)cc(Cn2cc(Cl)cc(C(N)=O)c2=N)c1 [Example 12, 5-chloro-1-[3-chloro-5-(methylsulfonyl)benzyl]-2-imino-1,2-dihydropyridine-3-carboxamide hydrochloride]",87.5
5,"C[S+]([O-])c1ccc(Cl)cc1Cn1cc(Cl)cc(C(N)=O)c1=N (stereo not shown) [Example 14, 5-chloro-1-[5-chloro-2-(methylsulfinyl)benzyl]-2-imino-1,2-dihydropyridine-3-carboxamide hydrochloride]",92
6,"Cc1ccc(S(C)(=O)=O)c(Cn2cc(Cl)cc(C(N)=O)c2=N)c1 [Example 8, 5-chloro-2-imino-1-[5-methyl-2-(methylsulfonyl)benzyl]-1,2-dihydropyridine-3-carboxamide hydrochloride]",93.5

# The remaining lines, values ahead:
row,inhibition at 1 µM [%],Structure (SMILES)
1,100,"CCS(=O)(=O)c1ccc(Cl)cc1Cn1cc(Cl)cc(C(N)=O)c1=N [Example 17, 5-chloro-1-[5-chloro-2-(ethylsulfonyl)benzyl]-2-imino-1,2-dihydropyridine-3-carboxamide hydrochloride]"
2,100,"CS(=O)(=O)c1ccc(Cl)cc1Cn1cc(Cl)cc(C(N)=O)c1=N [Example 1, 5-chloro-1-[5-chloro-2-(methylsulfonyl)benzyl]-2-imino-1,2-dihydropyridine-3-carboxamide hydrochloride]"
3,93.5,"CS(=O)(=O)c1ccc(F)cc1Cn1cc(Cl)cc(C(N)=O)c1=N [Example 18, 5-chloro-1-[5-fluoro-2-(methylsulfonyl)benzyl]-2-imino-1,2-dihydropyridine-3-carboxamide hydrochloride]"
4,91.2,"N=c1c(C(N)=O)cc(Cl)cn1Cc1cc(Cl)ccc1S(N)(=O)=O [Example 28, 5-chloro-1-(5-chloro-2-sulfamoylbenzyl)-2-imino-1,2-dihydropyridine-3-carboxamide hydrochloride]"
